# PubChem BioAssay (NCI)
#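 Briefly, cells in 96-well plates were exposed to five compound concentrations for 48 h, and endpoints were estimated by linear interpolation. GI50 marks 50% less growth. TGI: concentration producing complete growth inhibition.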
# Key:
# Assay in all cases: DTP human tumour cell line panel, 48 h
# K-562 leukemia = test system: K-562 leukemia
# NCI-H226 lung = test system: NCI-H226 lung
# MOLT-4 leukemia = test system: MOLT-4 leukemia
# LOX IMVI melanoma = test system: LOX IMVI melanoma
# KM12 colon = test system: KM12 colon
# SNB-75 CNS = test system: SNB-75 CNS
# OVCAR-8 ovarian = test system: OVCAR-8 ovarian
# HCT-15 colon = test system: HCT-15 colon
# HL-60(TB) leukemia = test system: HL-60(TB) leukemia
# HT29 colon = test system: HT29 colon
structure (smiles),measurement,setting,value
CSc1ccc(NC(=S)NN(C)C)cc1,TGI,K-562 leukemia,> 10 µM
same,TGI,NCI-H226 lung,> 10 µM
same,TGI,MOLT-4 leukemia,> 10 µM
same,TGI,LOX IMVI melanoma,> 10 µM
same,TGI,KM12 colon,> 10 µM
same,TGI,SNB-75 CNS,> 10 µM
same,TGI,OVCAR-8 ovarian,> 10 µM
same,TGI,HCT-15 colon,> 10 µM
same,TGI,HL-60(TB) leukemia,> 10 µM
same,TGI,HT29 colon,> 10 µM
Nc1nc(-c2ccccc2)nc(N)c1N=O,GI50,K-562 leukemia,5090 nM
same,TGI,K-562 leukemia,72.3 µM
same,GI50,NCI-H226 lung,4.87 µM
same,TGI,NCI-H226 lung,21.2 µM
same,GI50,MOLT-4 leukemia,17400 nM
same,TGI,MOLT-4 leukemia,> 100 µM
same,GI50,LOX IMVI melanoma,3140 nM
same,TGI,LOX IMVI melanoma,13 µM
same,GI50,KM12 colon,4.58 µM
same,TGI,KM12 colon,16.9 µM
same,GI50,SNB-75 CNS,5210 nM
same,TGI,SNB-75 CNS,19.1 µM
same,GI50,OVCAR-8 ovarian,7550 nM
same,TGI,OVCAR-8 ovarian,53.7 µM
same,GI50,HCT-15 colon,3030 nM
same,TGI,HCT-15 colon,11.1 µM
same,GI50,HL-60(TB) leukemia,19200 nM
same,TGI,HL-60(TB) leukemia,88.9 µM
same,GI50,HT29 colon,2880 nM
same,TGI,HT29 colon,10.3 µM
CC(=O)OCC1OC(SC2OC(COC(C)=O)C(OC(C)=O)C(OC(C)=O)C2OC(C)=O)C(OC(C)=O)C(OC(C)=O)C1OC(C)=O (stereo not given),TGI,K-562 leukemia,> 100 µM
same,TGI,NCI-H226 lung,> 100 µM
same,TGI,MOLT-4 leukemia,> 100 µM
same,TGI,LOX IMVI melanoma,> 100 µM
same,TGI,KM12 colon,> 100 µM
same,TGI,SNB-75 CNS,> 100 µM
same,TGI,OVCAR-8 ovarian,> 100 µM
same,TGI,HCT-15 colon,> 100 µM
same,TGI,HL-60(TB) leukemia,> 100 µM
same,TGI,HT29 colon,> 100 µM
NC(=O)c1cc(-c2ccc(F)cc2)cc(-c2ccncc2)c1N,GI50,K-562 leukemia,> 25000 nM
same,TGI,K-562 leukemia,> 25 µM
same,GI50,NCI-H226 lung,19.9 µM
same,TGI,NCI-H226 lung,> 25 µM
same,GI50,MOLT-4 leukemia,> 25000 nM
same,TGI,MOLT-4 leukemia,> 25 µM
same,GI50,LOX IMVI melanoma,> 25000 nM
same,TGI,LOX IMVI melanoma,> 25 µM
same,GI50,KM12 colon,> 25 µM
same,TGI,KM12 colon,> 25 µM
same,GI50,SNB-75 CNS,4990 nM
same,TGI,SNB-75 CNS,> 25 µM
same,GI50,OVCAR-8 ovarian,> 25000 nM
same,TGI,OVCAR-8 ovarian,> 25 µM
same,GI50,HCT-15 colon,> 25000 nM
same,TGI,HCT-15 colon,> 25 µM
same,GI50,HL-60(TB) leukemia,> 25000 nM
same,TGI,HL-60(TB) leukemia,> 25 µM
same,GI50,HT29 colon,> 25000 nM
same,TGI,HT29 colon,> 25 µM
O=C(CC1(O)C(=O)Nc2c(Cl)cc(Cl)cc21)c1cccc2ccccc12 (stereo not given),TGI,K-562 leukemia,36.6 µM
same,TGI,NCI-H226 lung,31.1 µM
same,TGI,MOLT-4 leukemia,66.9 µM
same,TGI,LOX IMVI melanoma,32.5 µM
same,TGI,KM12 colon,31.5 µM
same,TGI,SNB-75 CNS,33.1 µM
same,TGI,OVCAR-8 ovarian,32.2 µM
same,TGI,HCT-15 colon,31 µM
same,TGI,HL-60(TB) leukemia,26.5 µM
same,TGI,HT29 colon,33.8 µM
CCn1cc(C(=O)O)c(=O)c2cc3c(cc21)S(=O)(=O)CC3,TGI,K-562 leukemia,> 100 µM
same,TGI,NCI-H226 lung,> 100 µM
same,TGI,MOLT-4 leukemia,> 100 µM
same,TGI,LOX IMVI melanoma,> 100 µM
same,TGI,KM12 colon,> 100 µM
same,TGI,SNB-75 CNS,> 100 µM
same,TGI,OVCAR-8 ovarian,> 100 µM
same,TGI,HCT-15 colon,> 100 µM
same,TGI,HL-60(TB) leukemia,> 100 µM
same,TGI,HT29 colon,> 100 µM
CC(=Nc1ccccc1)C1=C(O)C(Cc2ccccc2)NC1=O (stereo not given),GI50,K-562 leukemia,20.3 nM
same,TGI,K-562 leukemia,> 100 µM
same,GI50,NCI-H226 lung,0.244 µM
same,TGI,NCI-H226 lung,> 100 µM
same,GI50,MOLT-4 leukemia,75.3 nM
same,TGI,MOLT-4 leukemia,> 100 µM
same,GI50,LOX IMVI melanoma,57.4 nM
same,TGI,LOX IMVI melanoma,> 34 µM
same,GI50,KM12 colon,0.0278 µM
same,TGI,KM12 colon,0.266 µM
same,GI50,SNB-75 CNS,24.6 nM
same,TGI,SNB-75 CNS,0.0788 µM
same,GI50,OVCAR-8 ovarian,94.5 nM
same,TGI,OVCAR-8 ovarian,> 100 µM
same,GI50,HCT-15 colon,42.5 nM
same,TGI,HCT-15 colon,> 48.1 µM
same,GI50,HL-60(TB) leukemia,26.5 nM
same,TGI,HL-60(TB) leukemia,0.0671 µM
same,GI50,HT29 colon,33.1 nM
same,TGI,HT29 colon,0.151 µM
Cn1ccnc1C(=O)/C=C/c1ccccc1,GI50,K-562 leukemia,2740 nM
same,TGI,K-562 leukemia,6.86 µM
same,GI50,NCI-H226 lung,3.24 µM
same,TGI,NCI-H226 lung,14.9 µM
same,GI50,MOLT-4 leukemia,3350 nM
same,TGI,MOLT-4 leukemia,15.6 µM
same,GI50,LOX IMVI melanoma,2990 nM
same,TGI,LOX IMVI melanoma,14.3 µM
same,GI50,KM12 colon,3.06 µM
same,TGI,KM12 colon,12.5 µM
same,GI50,SNB-75 CNS,2550 nM
same,TGI,SNB-75 CNS,6.54 µM
same,GI50,OVCAR-8 ovarian,2590 nM
same,TGI,OVCAR-8 ovarian,6.94 µM
same,GI50,HCT-15 colon,2770 nM
same,TGI,HCT-15 colon,13.8 µM
same,GI50,HL-60(TB) leukemia,2790 nM
same,TGI,HL-60(TB) leukemia,7.73 µM
same,GI50,HT29 colon,3310 nM
same,TGI,HT29 colon,11.2 µM
O=C1C2C3C=CC(C2C(=O)N1COP(=O)(O)O)C1C2C(=O)N(COP(=O)(O)O)C(=O)C2C31 (stereo not given),TGI,K-562 leukemia,> 100 µM
same,TGI,NCI-H226 lung,> 100 µM
same,TGI,MOLT-4 leukemia,> 100 µM
same,TGI,LOX IMVI melanoma,> 64.1 µM
same,TGI,KM12 colon,> 100 µM
same,TGI,SNB-75 CNS,> 100 µM
same,TGI,OVCAR-8 ovarian,> 100 µM
same,TGI,HCT-15 colon,> 57.9 µM
same,TGI,HL-60(TB) leukemia,29.9 µM
same,TGI,HT29 colon,> 100 µM
COC(=O)CCC(=O)CC(=O)C(=O)Nc1c(Cl)cc([N+](=O)[O-])cc1Cl,TGI,K-562 leukemia,> 100 µM
same,TGI,NCI-H226 lung,> 100 µM
same,TGI,MOLT-4 leukemia,> 100 µM
same,TGI,LOX IMVI melanoma,> 100 µM
same,TGI,KM12 colon,> 100 µM
same,TGI,SNB-75 CNS,> 100 µM
same,TGI,OVCAR-8 ovarian,> 100 µM
same,TGI,HCT-15 colon,> 100 µM
same,TGI,HL-60(TB) leukemia,> 100 µM
same,TGI,HT29 colon,> 100 µM
O=[N+]([O-])c1c(Br)sc(Br)c1[N+](=O)[O-],GI50,K-562 leukemia,815 nM
same,TGI,K-562 leukemia,3.99 µM
same,GI50,NCI-H226 lung,3.18 µM
same,TGI,NCI-H226 lung,13.3 µM
same,GI50,MOLT-4 leukemia,1010 nM
same,TGI,MOLT-4 leukemia,5.35 µM
same,GI50,LOX IMVI melanoma,1580 nM
same,TGI,LOX IMVI melanoma,3.07 µM
same,GI50,KM12 colon,10.1 µM
same,TGI,KM12 colon,22 µM
same,GI50,SNB-75 CNS,1880 nM
same,TGI,SNB-75 CNS,4.99 µM
same,GI50,OVCAR-8 ovarian,2390 nM
same,TGI,OVCAR-8 ovarian,7.08 µM
same,GI50,HCT-15 colon,1590 nM
same,TGI,HCT-15 colon,4.48 µM
same,GI50,HL-60(TB) leukemia,2400 nM
same,TGI,HL-60(TB) leukemia,6.65 µM
same,GI50,HT29 colon,1700 nM
same,TGI,HT29 colon,3.47 µM
CC1(C)[C@@H](O[C@@H]2OC[C@@H](O[C@@H]3O[C@H](CO)[C@@H](O)[C@H](O)[C@H]3O[C@@H]3OC[C@@H](O)[C@H](O)[C@H]3O)[C@H](O)[C@H]2O[C@@H]2O[C@H](CO)[C@@H](O)[C@H](O)[C@H]2O)CC[C@]2(C)[C@H]3CC[C@]45OC[C@@]6(CC[C@](C)(C=O)C[C@H]64)[C@H](O)C[C@@]5(C)[C@]3(C)CC[C@@H]12,GI50,K-562 leukemia,1810 nM
same,TGI,K-562 leukemia,5.51 µM
same,GI50,NCI-H226 lung,0.985 µM
same,TGI,NCI-H226 lung,2.11 µM
same,GI50,MOLT-4 leukemia,962 nM
same,TGI,MOLT-4 leukemia,2.31 µM
same,GI50,LOX IMVI melanoma,924 nM
same,TGI,LOX IMVI melanoma,1.95 µM
same,GI50,KM12 colon,1.21 µM
same,TGI,KM12 colon,3.17 µM
same,GI50,SNB-75 CNS,746 nM
same,TGI,SNB-75 CNS,1.53 µM
same,GI50,OVCAR-8 ovarian,1070 nM
same,TGI,OVCAR-8 ovarian,2.57 µM
same,GI50,HCT-15 colon,1620 nM
same,TGI,HCT-15 colon,4.37 µM
same,GI50,HL-60(TB) leukemia,1040 nM
same,TGI,HL-60(TB) leukemia,2.21 µM
same,GI50,HT29 colon,1010 nM
same,TGI,HT29 colon,2.06 µM
Fc1ccc(Nc2nc3nonc3nc2Nc2ccc(F)cc2)cc1,GI50,K-562 leukemia,352 nM
same,TGI,K-562 leukemia,12.4 µM
same,GI50,NCI-H226 lung,0.384 µM
same,TGI,NCI-H226 lung,13.9 µM
same,GI50,MOLT-4 leukemia,356 nM
same,TGI,MOLT-4 leukemia,1.65 µM
same,GI50,LOX IMVI melanoma,469 nM
same,TGI,LOX IMVI melanoma,4.29 µM
same,GI50,KM12 colon,0.395 µM
same,TGI,KM12 colon,10.6 µM
same,GI50,SNB-75 CNS,399 nM
same,TGI,SNB-75 CNS,3.38 µM
same,GI50,OVCAR-8 ovarian,402 nM
same,TGI,OVCAR-8 ovarian,15.4 µM
same,GI50,HCT-15 colon,384 nM
same,TGI,HCT-15 colon,11.7 µM
same,GI50,HL-60(TB) leukemia,342 nM
same,TGI,HL-60(TB) leukemia,1.5 µM
same,GI50,HT29 colon,482 nM
same,TGI,HT29 colon,10.7 µM
COc1ccc(-c2nc3ccccn3c2/C=C/C(=O)c2cc(OC)c(OC)c(OC)c2)cc1,GI50,K-562 leukemia,13100 nM
same,TGI,K-562 leukemia,> 100 µM
same,GI50,NCI-H226 lung,24.1 µM
same,TGI,NCI-H226 lung,> 100 µM
same,GI50,MOLT-4 leukemia,32900 nM
same,TGI,MOLT-4 leukemia,> 100 µM
same,GI50,LOX IMVI melanoma,6050 nM
same,TGI,LOX IMVI melanoma,> 100 µM
same,GI50,KM12 colon,4.99 µM
same,TGI,KM12 colon,> 100 µM
same,GI50,SNB-75 CNS,5490 nM
same,TGI,SNB-75 CNS,54.5 µM
same,GI50,OVCAR-8 ovarian,3920 nM
same,TGI,OVCAR-8 ovarian,> 100 µM
same,GI50,HCT-15 colon,4850 nM
same,TGI,HCT-15 colon,> 100 µM
same,GI50,HL-60(TB) leukemia,34000 nM
same,TGI,HL-60(TB) leukemia,> 100 µM
same,GI50,HT29 colon,4800 nM
same,TGI,HT29 colon,32.4 µM
